Experimental data reported in PMC6437697 (Journal of Medicinal Chemistry, 2019).

Key:
Assay in all cases: KINOMEscan
Format in all cases: binding
Conditions in all cases: read-out: % control activity remaining
ADCK3 = target: T1, ADCK3 (Homo sapiens, UniProt Q8NI60)
T1 construct: purchased Eurofins DiscoverX KINOMEscan

CAMKK2 = target: T2, CAMKK2 (Homo sapiens, UniProt Q96RR4)
T2 construct: purchased Eurofins DiscoverX KINOMEscan

CSNK1G3 = target: T3, CSNK1G3 (Homo sapiens, UniProt Q9Y6M4)
T3 construct: purchased Eurofins DiscoverX KINOMEscan
T3 sequence (Q9Y6M4 whole entry): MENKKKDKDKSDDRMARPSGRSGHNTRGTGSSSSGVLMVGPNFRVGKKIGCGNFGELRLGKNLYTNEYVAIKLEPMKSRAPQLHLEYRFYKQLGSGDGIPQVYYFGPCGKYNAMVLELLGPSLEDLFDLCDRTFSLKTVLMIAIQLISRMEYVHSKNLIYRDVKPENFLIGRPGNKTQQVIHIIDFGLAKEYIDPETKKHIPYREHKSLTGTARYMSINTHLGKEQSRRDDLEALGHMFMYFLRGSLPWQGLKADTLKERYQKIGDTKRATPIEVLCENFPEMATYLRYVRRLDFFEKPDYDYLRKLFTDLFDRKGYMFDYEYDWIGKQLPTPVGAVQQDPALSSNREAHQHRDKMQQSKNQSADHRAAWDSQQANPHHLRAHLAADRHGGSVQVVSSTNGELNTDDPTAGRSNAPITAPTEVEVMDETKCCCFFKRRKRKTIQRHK

FRK = target: T4, FRK (Homo sapiens, UniProt P42685)
T4 construct: purchased Eurofins DiscoverX KINOMEscan
T4 sequence (P42685 whole entry): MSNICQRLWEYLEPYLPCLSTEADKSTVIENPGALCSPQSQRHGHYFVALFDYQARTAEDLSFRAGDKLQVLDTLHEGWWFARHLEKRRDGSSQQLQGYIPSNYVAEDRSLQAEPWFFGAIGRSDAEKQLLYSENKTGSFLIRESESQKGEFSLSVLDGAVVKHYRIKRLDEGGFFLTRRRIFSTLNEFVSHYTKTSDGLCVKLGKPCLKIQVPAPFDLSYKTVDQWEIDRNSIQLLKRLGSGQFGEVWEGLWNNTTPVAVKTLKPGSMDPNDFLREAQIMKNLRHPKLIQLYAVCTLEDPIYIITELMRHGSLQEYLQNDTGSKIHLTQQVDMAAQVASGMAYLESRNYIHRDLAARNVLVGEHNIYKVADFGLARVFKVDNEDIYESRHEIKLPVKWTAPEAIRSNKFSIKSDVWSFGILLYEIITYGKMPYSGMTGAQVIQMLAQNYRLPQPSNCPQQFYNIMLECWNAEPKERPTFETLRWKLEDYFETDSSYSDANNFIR

MAP3K3 = target: T5, MAP3K3 (Homo sapiens, UniProt Q99759)
T5 construct: purchased Eurofins DiscoverX KINOMEscan
T5 sequence (Q99759 1-626): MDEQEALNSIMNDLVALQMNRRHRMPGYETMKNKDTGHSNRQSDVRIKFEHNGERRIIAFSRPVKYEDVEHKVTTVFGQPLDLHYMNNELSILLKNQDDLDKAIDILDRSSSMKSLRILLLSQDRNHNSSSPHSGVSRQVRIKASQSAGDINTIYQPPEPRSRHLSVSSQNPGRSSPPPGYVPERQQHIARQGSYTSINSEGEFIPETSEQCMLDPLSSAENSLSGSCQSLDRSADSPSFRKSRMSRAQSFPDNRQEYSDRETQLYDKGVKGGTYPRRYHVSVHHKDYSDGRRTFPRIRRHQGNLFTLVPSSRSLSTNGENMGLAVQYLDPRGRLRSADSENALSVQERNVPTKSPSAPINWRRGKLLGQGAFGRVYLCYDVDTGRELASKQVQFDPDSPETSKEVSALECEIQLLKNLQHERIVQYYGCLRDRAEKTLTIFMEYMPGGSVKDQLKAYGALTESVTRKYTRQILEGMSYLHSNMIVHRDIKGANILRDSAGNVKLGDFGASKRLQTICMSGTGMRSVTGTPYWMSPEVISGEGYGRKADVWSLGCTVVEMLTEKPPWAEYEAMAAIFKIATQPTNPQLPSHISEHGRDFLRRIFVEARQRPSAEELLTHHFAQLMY

PHKG2 = target: T6, PHKG2 (Homo sapiens, UniProt P15735)
T6 construct: purchased Eurofins DiscoverX KINOMEscan
T6 sequence (P15735 1-406): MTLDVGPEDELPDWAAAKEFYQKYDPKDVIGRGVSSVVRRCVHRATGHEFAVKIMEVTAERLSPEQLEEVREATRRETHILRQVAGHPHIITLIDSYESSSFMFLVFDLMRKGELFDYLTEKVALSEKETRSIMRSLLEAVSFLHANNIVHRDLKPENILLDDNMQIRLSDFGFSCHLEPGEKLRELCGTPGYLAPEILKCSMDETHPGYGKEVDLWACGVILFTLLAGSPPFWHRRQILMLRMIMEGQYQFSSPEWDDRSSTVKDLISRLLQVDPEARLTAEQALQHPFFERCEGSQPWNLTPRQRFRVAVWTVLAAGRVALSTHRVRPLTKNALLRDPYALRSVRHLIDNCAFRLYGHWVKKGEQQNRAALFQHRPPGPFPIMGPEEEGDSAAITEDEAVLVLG

PIK3CA(E545K) = target: T7, PIK3CA(E545K) (Homo sapiens, UniProt P42336, E545K)
T7 construct: purchased Eurofins DiscoverX KINOMEscan
T7 sequence (P42336 whole entry E545K): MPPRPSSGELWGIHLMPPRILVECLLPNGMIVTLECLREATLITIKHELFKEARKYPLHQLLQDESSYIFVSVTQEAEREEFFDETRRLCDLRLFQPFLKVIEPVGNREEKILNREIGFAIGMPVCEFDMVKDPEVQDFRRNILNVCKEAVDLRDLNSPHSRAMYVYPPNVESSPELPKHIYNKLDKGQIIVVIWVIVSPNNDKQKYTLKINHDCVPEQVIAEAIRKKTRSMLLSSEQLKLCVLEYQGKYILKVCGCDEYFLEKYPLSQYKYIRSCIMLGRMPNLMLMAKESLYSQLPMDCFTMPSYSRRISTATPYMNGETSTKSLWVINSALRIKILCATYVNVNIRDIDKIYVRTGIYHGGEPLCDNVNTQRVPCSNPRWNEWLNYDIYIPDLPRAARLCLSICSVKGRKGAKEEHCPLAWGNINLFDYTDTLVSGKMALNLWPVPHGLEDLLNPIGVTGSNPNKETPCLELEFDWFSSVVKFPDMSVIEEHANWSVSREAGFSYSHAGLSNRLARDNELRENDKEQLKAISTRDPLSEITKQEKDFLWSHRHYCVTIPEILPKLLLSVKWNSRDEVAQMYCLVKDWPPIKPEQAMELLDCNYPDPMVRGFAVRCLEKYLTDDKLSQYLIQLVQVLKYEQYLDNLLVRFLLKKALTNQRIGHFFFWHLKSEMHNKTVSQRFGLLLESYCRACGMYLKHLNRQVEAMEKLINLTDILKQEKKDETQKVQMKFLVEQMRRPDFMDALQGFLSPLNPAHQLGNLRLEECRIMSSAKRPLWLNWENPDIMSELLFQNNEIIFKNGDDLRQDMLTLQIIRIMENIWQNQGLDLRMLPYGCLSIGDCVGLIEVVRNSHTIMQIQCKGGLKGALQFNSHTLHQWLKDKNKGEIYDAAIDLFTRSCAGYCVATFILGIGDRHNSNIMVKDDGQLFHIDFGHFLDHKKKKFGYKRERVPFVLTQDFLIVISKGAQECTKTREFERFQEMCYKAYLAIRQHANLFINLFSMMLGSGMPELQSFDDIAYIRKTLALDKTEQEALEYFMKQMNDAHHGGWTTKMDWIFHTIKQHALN

STK36 = target: T8, STK36 (Homo sapiens, UniProt Q9NRP7)
T8 construct: purchased Eurofins DiscoverX KINOMEscan
T8 sequence (Q9NRP7 1-1315): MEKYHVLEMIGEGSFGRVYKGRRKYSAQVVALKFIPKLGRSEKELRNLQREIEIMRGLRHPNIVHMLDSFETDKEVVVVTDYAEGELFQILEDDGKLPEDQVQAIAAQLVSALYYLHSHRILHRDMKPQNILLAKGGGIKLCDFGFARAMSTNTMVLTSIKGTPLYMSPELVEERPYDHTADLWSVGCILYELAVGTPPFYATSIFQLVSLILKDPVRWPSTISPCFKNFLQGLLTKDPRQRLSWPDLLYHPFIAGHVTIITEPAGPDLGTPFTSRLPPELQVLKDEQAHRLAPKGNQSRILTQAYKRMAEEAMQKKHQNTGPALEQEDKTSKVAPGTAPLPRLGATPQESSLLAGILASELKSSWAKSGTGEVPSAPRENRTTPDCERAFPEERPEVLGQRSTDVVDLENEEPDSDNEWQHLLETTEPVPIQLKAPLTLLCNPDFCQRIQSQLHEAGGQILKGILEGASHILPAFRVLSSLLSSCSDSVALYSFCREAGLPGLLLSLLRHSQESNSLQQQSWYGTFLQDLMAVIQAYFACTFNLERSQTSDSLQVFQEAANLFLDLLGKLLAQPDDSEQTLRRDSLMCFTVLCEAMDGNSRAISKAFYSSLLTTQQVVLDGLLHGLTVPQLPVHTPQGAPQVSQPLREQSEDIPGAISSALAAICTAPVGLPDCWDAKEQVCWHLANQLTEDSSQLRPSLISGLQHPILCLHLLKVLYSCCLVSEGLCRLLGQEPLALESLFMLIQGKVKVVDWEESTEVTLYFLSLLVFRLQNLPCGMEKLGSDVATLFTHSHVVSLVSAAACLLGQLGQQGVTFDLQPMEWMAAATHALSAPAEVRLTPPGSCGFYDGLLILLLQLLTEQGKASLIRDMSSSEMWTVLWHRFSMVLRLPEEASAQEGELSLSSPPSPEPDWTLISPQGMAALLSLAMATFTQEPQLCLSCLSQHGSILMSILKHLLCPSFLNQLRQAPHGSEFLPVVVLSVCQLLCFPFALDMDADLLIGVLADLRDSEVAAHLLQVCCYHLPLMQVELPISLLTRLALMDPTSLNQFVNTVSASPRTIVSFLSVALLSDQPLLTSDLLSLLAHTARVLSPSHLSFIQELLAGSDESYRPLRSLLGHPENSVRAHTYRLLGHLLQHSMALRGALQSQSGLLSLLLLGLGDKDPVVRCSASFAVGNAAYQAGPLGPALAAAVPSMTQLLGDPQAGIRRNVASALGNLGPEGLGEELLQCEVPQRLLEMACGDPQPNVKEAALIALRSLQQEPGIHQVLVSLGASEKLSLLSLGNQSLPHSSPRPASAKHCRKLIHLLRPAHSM

T2 sequence (Q96RR4 whole entry): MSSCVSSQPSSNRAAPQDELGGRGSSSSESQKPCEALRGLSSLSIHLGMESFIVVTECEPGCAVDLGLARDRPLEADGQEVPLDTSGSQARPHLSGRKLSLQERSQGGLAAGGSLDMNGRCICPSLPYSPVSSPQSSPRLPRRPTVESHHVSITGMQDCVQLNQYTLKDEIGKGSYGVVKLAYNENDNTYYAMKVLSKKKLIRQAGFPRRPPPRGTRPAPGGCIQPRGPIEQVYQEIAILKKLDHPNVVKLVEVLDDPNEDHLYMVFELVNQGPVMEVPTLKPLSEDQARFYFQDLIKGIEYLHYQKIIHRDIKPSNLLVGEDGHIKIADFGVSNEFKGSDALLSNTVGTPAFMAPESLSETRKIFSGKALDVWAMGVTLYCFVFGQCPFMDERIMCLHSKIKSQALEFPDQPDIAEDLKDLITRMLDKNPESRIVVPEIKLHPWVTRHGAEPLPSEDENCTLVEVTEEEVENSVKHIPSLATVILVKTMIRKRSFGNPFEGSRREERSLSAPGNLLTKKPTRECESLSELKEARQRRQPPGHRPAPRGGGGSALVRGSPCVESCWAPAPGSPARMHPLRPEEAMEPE
T1 sequence (Q8NI60 163-647): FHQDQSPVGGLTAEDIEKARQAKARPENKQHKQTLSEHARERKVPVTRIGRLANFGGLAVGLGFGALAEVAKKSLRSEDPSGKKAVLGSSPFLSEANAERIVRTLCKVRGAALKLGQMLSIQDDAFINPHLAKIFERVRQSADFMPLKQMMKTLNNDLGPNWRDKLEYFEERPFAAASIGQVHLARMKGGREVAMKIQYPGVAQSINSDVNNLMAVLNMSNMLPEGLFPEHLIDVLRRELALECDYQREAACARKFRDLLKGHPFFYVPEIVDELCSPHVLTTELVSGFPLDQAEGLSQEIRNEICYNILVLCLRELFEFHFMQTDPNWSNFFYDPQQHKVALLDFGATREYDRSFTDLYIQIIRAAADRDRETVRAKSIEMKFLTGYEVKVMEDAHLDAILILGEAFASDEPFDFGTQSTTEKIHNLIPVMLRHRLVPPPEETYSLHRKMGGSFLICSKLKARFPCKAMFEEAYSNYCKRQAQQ

| Structure (SMILES) | remaining binding at 1 µM (ADCK3) [%] | remaining binding at 1 µM (CAMKK2) [%] | remaining binding at 1 µM (CSNK1G3) [%] | remaining binding at 1 µM (FRK) [%] | remaining binding at 1 µM (MAP3K3) [%] | remaining binding at 1 µM (PHKG2) [%] | remaining binding at 1 µM (PIK3CA(E545K)) [%] | remaining binding at 1 µM (STK36) [%] |
| --- | --- | --- | --- | --- | --- | --- | --- | --- |
| Clc1cc(NCC2CC2)c2ncc(-c3ccc4[nH]ncc4c3)n2n1 [compound 2, 6-Chloro-N-(cyclopropylmethyl)-3-(1H-indazol-5-yl)imidazo[1,2-b]pyridazin-8-amine] | 79 | 99 | 100 | 90 | 88 | 85 | 75 | 91 |
| O=C(CN1CCOCC1)N[C@H]1CC[C@H](Nc2cc(Cl)nn3c(-c4ccc5[nH]ncc5c4)cnc23)CC1 [compound 26] | 88 | 42 | 100 | 96 | 89 | 29 | 80 | 95 |
| CN1CCC(CNc2cc(Cl)nn3c(-c4cc5nc(Nc6ccccc6)[nH]c5cc4F)cnc23)CC1 [compound 31, 6-Chloro-3-(6-fluoro-2-(phenylamino)-1H-benzo[d]imidazol-5-yl)-N-((1-methylpiperidin-4-yl)methyl)imidazo[1,2-b]pyridazin-8-amine] | 85 | 100 | 100 | 92 | 73 | 98 | 68 | 93 |
